Experimental data reported in paper PMC11310889, “Ribosomal translation of fluorinated non-canonical amino acids for de novo biologically active fluorinated macrocyclic peptides” (Chemical Science, 2024).

Legend:
E. coli W3110 [1] = test: Propidium iodide (PI) assay of membrane permeability; format: cell-based, Escherichia coli; settings: E. coli W3110 logarithmic-phase, 15 min treatment with 5 μM peptide, PI 25 μg/mL 15 min (Fig. 5A)
Procedure: Propidium Iodide (PI) assay
Thaw the previously preserved E. coli W3110 cells from the -80 °C freezer. Scrape a small amount and inoculate it into 1 mL of LB liquid medium. Culture overnight in a 37°C shaker. Next day, inoculate the strain into fresh LB liquid medium at a 1:100 ratio and incubate at 37 °C until the OD600 reaches approximately 0.47 to 0.53. Take 100 μL of the E. coli W3110 cells and centrifuge for 2 min at 13,000 rpm. Discard the supernatant. For the untreated group, resuspend the cells in 100 μL of PBS. For the peptide treatment group, resuspend the cells in 99 μL of ddH2O and add 1 […]
μL of 0.5 mM of the different peptides. Mix thoroughly and let react for 15 min. After the treatment, take 80 μL of each sample and incubate with PI at a final concentration of 25 μg/mL for 15 min.
After incubation, wash the samples with the same amount of PBS, centrifuge, and resuspend at a 10-fold concentration. Observe the images using a Nikon Eclipse Ci-L Plus microscope. […]
Incubate overnight in a 37°C shaker. […]
Centrifuge again at
6100g for 10 min, discard the supernatant, and add 500 μL of ddH2O containing 2.5% glutaraldehyde. Resuspend and fix the cells overnight at 4°C. Centrifuge at 6100g for 10 min, remove the supernatant, and wash twice with ddH2O, letting it stand for 15 min each time, followed by centrifugation at 6100g for 10 min. Discard the supernatant. Dehydrate the sample with ethanol at concentration gradients of 30%, 60%, and 90%, without resuspension, centrifuging at 6100g for […]

E. coli W3110 [2] = test: Scanning electron microscopy of cell morphology; format: cell-based, Escherichia coli; settings: E. coli W3110 logarithmic-phase, 4 h treatment at 2 μM and 5 μM (Fig. 5B, S11)
Procedure: Thaw the previously preserved E. coli W3110 cells from the -80 °C freezer. […]
Scanning electron microscopy
Thaw the previously preserved E. coli W3110 cells from the -80°C freezer. Scrape a small amount and inoculate it into 1 mL of LB liquid medium. Incubate overnight in a 37°C shaker. The next day, inoculate the strain into fresh LB liquid medium at a 1:100 ratio and incubate at 37°C until the OD600 reaches approximately 0.47 to 0.53. Take 500 μL of E. coli W3110 cells, centrifuge for 10 min at 4000 rpm, and discard the supernatant. Resuspend the cells in 500 μL of PBS, then centrifuge again at 4000 rpm for 10 min and discard the supernatant. Dissolve various macrocyclic peptides in DMSO and dilute to the required concentration. Resuspend the untreated group in 500 μL of PBS.
For the peptide treatment group, resuspend in 495 μL of ddH2O, add 5 μL of 0.2 mM or 0.5 mM peptides, mix well, and let react for 4 h.
After the treament, spot 4 μL of the sample on plates. Perform the first ten-fold dilution and mix, then continue with the second to fifth ten-fold dilutions. Incubate the plates inverted overnight in a 37°C incubator. Scan and count the colonies. For the remaining 492 μL, centrifuge at 6100g for 10 min, discard the supernatant, add 500 μL of ddH2O, and let it stand for 15 min. Centrifuge again at 6100g for 10 min, discard the supernatant, and add 500 μL of ddH2O containing 2.5% glutaraldehyde. Resuspend and fix the cells overnight at 4°C. Centrifuge at 6100g for 10 min, remove the supernatant, and wash twice with ddH2O, letting it stand for 15 min each time, followed by centrifugation at 6100g for 10 min. Discard the supernatant. Dehydrate the sample with ethanol at concentration gradients of 30%, 60%, and 90%, without resuspension, centrifuging at 6100g for […]
10 min and discarding the supernatant after each step. Finally, use 100% ethanol, rest for 15 min, centrifuge at 6100g for 10 min, discard the supernatant, and repeat with 100% ethanol, leaving about 10 μL. Then the critical point was dried and sprayed with gold, and the images were observed by […]
Prediction of binding sites between peptides and the BAM complex
Firstly, the fpocket algorithm was used, a rapid method for pocket prediction based on the three-dimensional structure of BAM complex (PDB ID: 5AYW). This method establishes a grid surrounding the protein, positioning alpha spheres on grid points devoid of spatial conflicts with protein atoms, subsequently utilizing a clustering algorithm to ascertain whether these regions constitute potential binding pockets. Alpha spheres were designated with radii ranging from 3.4Å to 6.2Å, with a prerequisite of at least 15 alpha spheres for a region to be considered a pocket. […]
PepNN evaluated each amino acid for its potentiality as a peptide binding site. […]

Ac-(4-F-DPhe)IWHKSLT(4-F-DPhe)NYLHTCGS(Acp)RRRRRRRRR-NH2 (sidechain bridge or staple) [BAM-f2-R9, BAM-f2 conjugated with cell-penetrating peptide R9]
PI red fluorescence (cell membrane permeability) (E. coli W3110 [1]): notable red fluorescence intensity
morphological changes by scanning electron microscopy (E. coli W3110 [2]): severe damage in the cell shape and even lysis

Ac-(4-F-DPhe)KHFIY(4-F-β-Phe)YRSPICGS(Acp)RRRRRRRRR-NH2 (sidechain bridge or staple) [BAM-β3-R9, BAM-β3 conjugated with cell-penetrating peptide R9]
PI red fluorescence (cell membrane permeability) (E. coli W3110 [1]): notable red fluorescence intensity
morphological changes by scanning electron microscopy (E. coli W3110 [2]): severe damage in the cell shape and even lysis
